Source: patent US20130116284A1, “LIPOIC ACID AND NITROXIDE DERIVATIVES AND USES THEREOF” (RADIKAL THERAPEUTICS INC., priority 2010, published 2013)
“And” between values parts separate entries of the source, which are not always exact repeats. Equal entries are not always repeated. Each block holds one compound with its values, some of them ahead of it.

How the values were obtained:
RAW cells = assay: cytoprotection of RAW cells exposed to H2O2 (viability); settings: 0.1 μM, same model system (not shown)
PARP = settings: read-out: PARP inhibitor IC50; stated for the monofunctional PARP inhibitor, no method given; cited from earlier work
PARP-1 = PARP-1 (Homo sapiens, UniProt P09874); assay: in vitro PARP inhibition potency assay, Universal calorimetric PARP-1 Assay Kit (Trevigen); format: biochemical; settings: 10 point curve, 0.16 nM to 250 nM
Sequence of PARP-1 (P09874 whole entry): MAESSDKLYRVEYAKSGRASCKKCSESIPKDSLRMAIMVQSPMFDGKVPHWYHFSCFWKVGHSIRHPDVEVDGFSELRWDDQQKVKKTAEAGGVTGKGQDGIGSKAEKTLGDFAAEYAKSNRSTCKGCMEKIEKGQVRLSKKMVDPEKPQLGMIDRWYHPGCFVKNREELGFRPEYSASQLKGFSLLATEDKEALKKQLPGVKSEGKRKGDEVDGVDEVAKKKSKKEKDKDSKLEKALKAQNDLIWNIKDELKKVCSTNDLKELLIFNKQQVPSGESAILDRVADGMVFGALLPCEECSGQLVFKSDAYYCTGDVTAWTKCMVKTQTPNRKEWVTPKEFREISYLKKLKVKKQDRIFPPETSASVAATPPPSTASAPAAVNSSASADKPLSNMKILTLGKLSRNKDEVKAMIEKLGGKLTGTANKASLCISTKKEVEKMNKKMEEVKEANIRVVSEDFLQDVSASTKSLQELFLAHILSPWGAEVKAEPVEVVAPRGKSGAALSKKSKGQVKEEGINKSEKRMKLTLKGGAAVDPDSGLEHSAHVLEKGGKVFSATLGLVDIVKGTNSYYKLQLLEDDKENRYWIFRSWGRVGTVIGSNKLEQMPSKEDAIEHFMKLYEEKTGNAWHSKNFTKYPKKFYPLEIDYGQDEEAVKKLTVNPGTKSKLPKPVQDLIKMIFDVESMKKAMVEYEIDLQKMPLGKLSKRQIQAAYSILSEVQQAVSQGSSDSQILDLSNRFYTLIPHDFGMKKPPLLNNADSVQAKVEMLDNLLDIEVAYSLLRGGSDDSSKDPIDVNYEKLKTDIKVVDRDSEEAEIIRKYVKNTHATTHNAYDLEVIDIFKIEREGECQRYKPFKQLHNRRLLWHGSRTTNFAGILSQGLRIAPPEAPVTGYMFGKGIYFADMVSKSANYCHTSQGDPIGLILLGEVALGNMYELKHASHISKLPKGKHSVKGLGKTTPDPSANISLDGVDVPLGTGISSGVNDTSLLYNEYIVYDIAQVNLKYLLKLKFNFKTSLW
Protocol: In this experiment, the PARP inhibition activity of compound 1 (R-503) was evaluated in in vitro potency assay using Universal calorimetric PARP-1 Assay Kit (Trevigen, Gaithersburg, Md.).

CD mice = assay: rodent model of inflammation induced by zymosan (lung MPO, lung histology); format: in vivo; settings: 60 mg/kg IP at 1 hour after zymosan 500 mg/kg IP; lung at 18 hours; vs. vehicle control
Protocol: In this study, we tested the potency of compound 1 (R-503) in treatment of an inflammation induced by zymosan, a glucan with repeating glucose units connected by β-1,3-glycosidic linkages.
Male CD mice (20-22 g) were randomly allocated into the following groups (n=10 per experimental arm): (i) zymosan+vehicle group, wherein zymosan (500 mg/kg) was administered via an intraperitoneal (IP) route; (ii) zymosan+compound 1 group, which was identical to the zymosan+vehicle group except for the administration of compound 1 (60 mg/kg IP) at 1 hour after zymosan challenge; and (iii) Sham+vehicle group, which was identical to the zymosan+vehicle group but vehicle was administered in place of zymosan. 18 hours after zymosan admininstration, lung samples were scored for histologic injury by a pathologist blinded to group assignment and neutrophil concentration was determined by measurement of myeloperoxidase (MPO) activity. The following morphological criteria were used for scoring: 0, normal lung; grade 1, minimal edema or infiltration of alveolar or bronchiolar walls; grade 3, moderate edema and inflammatory cell infiltration without obvious damage to lung architecture; grade 4, severe inflammatory cell infiltration with obvious damage to lung architecture. […]

Balb/c mice = assay: murine model of chlorine inhalational lung injury (lung MPO, lung histology); format: in vivo; settings: 30 mg/kg/dose IP q12h from 15 minutes after 400 ppm Cl2 for 30 minutes; lung at 24 hours; relative to placebo (D5W)
Protocol: In this study, we potency of compound 1 (R-503) in treatment of chlorine inhalational lung injury was tested.
Male Balb/c mice were exposed in a cylindrical glass chamber to 400 ppm Cl2 in air for 30 minutes. 15 minutes after the conclusion of Cl2 exposure, mice were initiated on a q12h regimen of compound 1 (30 mg/kg/dose IP in 0.5 ml dextrose 5% in water, D5W). At 24 hours, mice were euthanized and lung tissue was taken for examination of polymorphonuclear neutrophil (PMN) infiltration (as reflected by MPO) and lung histology (H&E staining). The following morphological criteria were used for scoring: 0, normal lung; grade 1, minimal edema or infiltration of alveolar or bronchiolar walls; grade 3, moderate edema and inflammatory cell infiltration without obvious damage to lung architecture; grade 4, severe inflammatory cell infiltration with obvious damage to lung architecture. As shown in FIGS. 4A-4B, compound 1 therapy reduced the elevation in MPO and histological lung damage by 82% and 73%, respectively, relative to placebo (D5W).

Structure (SMILES): O=C(O)CCCC[C@@H]1CCSS1 (racemic) [lipoic acid]
- cytoprotective effect in RAW cells exposed to H2O2 (RAW cells): no beneficial effect

Structure (SMILES): C[C@]1(c2nc3c(C(N)=O)cccc3[nH]2)CCCN1 [ABT-888]
- IC50 (PARP): < 0.005 µM

- IC50 (PARP-1): 0.0262 µM and 0.026 µM
Structure (SMILES): NC(=O)c1cccc2[nH]c(CCCCC3CCSS3)nc12 (stereo not shown) [compound 1, 2-(4-(1,2-dithiolan-3-yl)butyl)-1H-benzo[d]imidazole-4-carboxamide]
- reduction of elevation in lung MPO activity (CD mice): 65%
- reduction of lung histologic injury (CD mice): 80%
- reduction of elevation in lung MPO (Balb/c mice): 82%
- reduction of histological lung damage (Balb/c mice): 73%
